For data set [1], the system named is A549 lung adenocarcinoma cell line. The experiment in a line: Cell viability assay (MTT). The class given is cell-based, human. Particulars: Table S2; MTT, 24 h; mean ± sd; N = 2 independent measurements with six technical replicates each (Figs S6-S8); read-out: A549 EC50 /µM. Summed up:
(§1)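 Viability by MTT: 10^4 cells/well exposed 24 h to 2-fold peptide dilutions from 100 μM in DMEM, then 1 h with 0.5 mg mL−1 MTT; absorbance at 540 nm relative to peptide-free medium as 100% survival. EC50 from a 3-parameter log-logistic fit.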

For data set [2], the system named is MCF7 breast adenocarcinoma cell line. The experiment in a line: Cell viability assay (MTT). The settings on record: Table S2, 24 h, mean ± sd, N = 2 independent measurements with six technical replicates each (Figs S6-S8). Type of data set: cell-based, human. The essentials: as §1
The subject of data set [3] is noncancer HDMEC primary cells (human dermal microvascular endothelial cells). Kind of data set: Cell viability assay (MTT). The class given is cell-based. Particulars: Table S2; noncancer primary cells; MTT, 24 h; mean ± sd; N = 2 independent measurements with six technical replicates each (Figs S6-S8). Summed up: as §1
Data set [4] has as its system human erythrocytes. Kind of data set: Hemolysis assay. Type of data set: cell-based. The settings on record: red cells of human, 1 h. Summed up:
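Washed human erythrocytes (5% v/v in PBS) were mixed with peptide plated as a 200–6.25 μM series, in triplicate, for 1 h at 37 °C. Released haemoglobin in the supernatant was read at 540 nm, scaled to 0.1% Triton X-100 (100%) and PBS (0%). HC50 came from a 3-parameter log-logistic fit.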

Each structure is given as a SMILES string. Peptide text beside a SMILES is read from it. Where only a bound is given, the exact number is not on record here.

Regarding `CC[C@H](C)[C@H](NC(=O)[C@H](CC(C)C)NC(=O)[C@H](CCCCN)NC(=O)[C@H](Cc1ccccc1)NC(=O)[C@@H]1CCCN1C(=O)[C@H](CCCCN)NC(=O)[C@H](Cc1c[nH]cn1)NC(=O)[C@H](Cc1ccccc1)NC(=O)[C@H](Cc1c[nH]c2ccccc12)NC(=O)[C@@H](NC(=O)[C@H](CCCCN)NC(=O)[C@H](CC(C)C)NC(=O)[C@H](Cc1c[nH]cn1)NC(=O)[C@H](CCCNC(=N)N)NC(=O)[C@@H](NC(=O)[C@H](Cc1ccc(O)cc1)NC(=O)[C@@H](N)Cc1c[nH]cn1)[C@@H](C)CC)[C@@H](C)O)C(=O)NCC(=O)N[C@@H](CCCCN)C(=O)N[C@H](C(N)=O)C(C)C` [Off2.4] (H-HYIRHLKTWFHKPFKLIGKV-NH2), the EC50 in data set [1] was above 100 µM; in data set [2] it was above 100 µM; in data set [3], 169 ± 28 µM. For the same compound, the “Eryhtr. HC50 /µM” value in data set [4] was above 200 µM.

On to `CC[C@H](C)[C@H](NC(=O)[C@@H](N)CCCCN)C(=O)N[C@@H](Cc1ccccc1)C(=O)N[C@@H](CCCCN)C(=O)N[C@@H](CCCCN)C(=O)N[C@@H](Cc1ccccc1)C(=O)N[C@@H](CCCCN)C(=O)N[C@@H](CC(=O)O)C(=O)N[C@@H](Cc1c[nH]c2ccccc12)C(=O)N[C@@H](Cc1ccccc1)C(=O)N[C@@H](CCCCN)C(=O)N[C@@H](CCCCN)C(=O)N[C@@H](C)C(=O)N[C@@H](Cc1ccccc1)C(=O)N[C@@H](Cc1c[nH]cn1)C(=O)N[C@H](C(=O)N[C@@H](CC(C)C)C(=O)NCC(=O)N[C@@H](CCCCN)C(=O)N[C@H](C(N)=O)C(C)C)C(C)C` [Off2.5] (H-KIFKKFKDWFKKAFHVLGKV-NH2), for which the values for the EC50 in data set [1], in data set [2] and in data set [3] were 14.8 ± 0.7 µM, 10.4 ± 0.8 µM and 22 ± 1 µM, respectively. The “Eryhtr. HC50 /µM” value in data set [4] is on record as above 100 µM.

`CC[C@H](C)[C@H](NC(=O)[C@H](CCC(N)=O)NC(=O)[C@H](Cc1ccccc1)NC(=O)[C@H](C)NC(=O)[C@H](CCCCN)NC(=O)[C@H](CCCCN)NC(=O)[C@H](Cc1ccc(O)cc1)NC(=O)[C@H](Cc1c[nH]c2ccccc12)NC(=O)[C@@H](NC(=O)[C@H](CCCCN)NC(=O)[C@@H](NC(=O)[C@H](CCCCN)NC(=O)[C@H](CCCCN)NC(=O)[C@H](Cc1ccccc1)NC(=O)[C@@H](NC(=O)[C@@H](N)CCC(N)=O)[C@@H](C)CC)C(C)C)[C@@H](C)O)C(=O)N[C@@H](CC(C)C)C(=O)NCC(=O)N[C@@H](CCCNC(=N)N)C(=O)N[C@@H](CC(C)C)C(N)=O` [Off2.6] (H-QIFKKVKTWYKKAFQILGRL-NH2): the EC50 in data set [1] came to 12.4 ± 0.1 µM; in data set [2], 9.3 ± 0.2 µM; in data set [3], 21 ± 2 µM. Besides, the “Eryhtr. HC50 /µM” value in data set [4] was above 100 µM.

`CC[C@H](C)[C@H](NC(=O)[C@H](CC(C)C)NC(=O)[C@@H](N)CCCNC(=N)N)C(=O)N[C@@H](CCCCN)C(=O)N[C@@H](CCCNC(=N)N)C(=O)N[C@H](C(=O)N[C@@H](CCCCN)C(=O)N[C@H](C(=O)N[C@@H](Cc1c[nH]c2ccccc12)C(=O)N[C@@H](Cc1ccc(O)cc1)C(=O)N[C@@H](CCCNC(=N)N)C(=O)N[C@@H](CCCCN)C(=O)N[C@@H](C)C(=O)N[C@@H](Cc1c[nH]c2ccccc12)C(=O)N[C@@H](CCCCN)C(=O)N[C@H](C(=O)N[C@H](C(=O)NCC(=O)N[C@@H](CCCCN)C(=O)N[C@@H](Cc1ccccc1)C(N)=O)C(C)C)C(C)C)[C@@H](C)O)[C@@H](C)CC` [Off2.7] (H-RLIKRIKTWYRKAWKVVGKF-NH2): the results for the EC50 in data set [1], in data set [2] and in data set [3] were 15 ± 1 µM, 11.2 ± 0.7 µM and 23 ± 5 µM, respectively. The “Eryhtr. HC50 /µM” value in data set [4] is on record as above 200 µM.

As for `CC[C@H](C)[C@H](NC(=O)[C@@H](NC(=O)[C@H](Cc1c[nH]cn1)NC(=O)[C@H](Cc1c[nH]c2ccccc12)NC(=O)[C@H](C)NC(=O)[C@H](CCCNC(=N)N)NC(=O)[C@H](CCC(=O)O)NC(=O)[C@H](Cc1ccc(O)cc1)NC(=O)[C@H](Cc1ccc(O)cc1)NC(=O)[C@@H](NC(=O)[C@H](Cc1c[nH]cn1)NC(=O)[C@H](CC(C)C)NC(=O)[C@H](Cc1c[nH]cn1)NC(=O)[C@H](CCCCN)NC(=O)[C@H](CC(C)C)NC(=O)[C@H](Cc1ccccc1)NC(=O)[C@@H](N)CCCNC(=N)N)[C@@H](C)O)C(C)C)C(=O)NCC(=O)N[C@@H](Cc1c[nH]cn1)C(=O)N[C@@H](CC(C)C)C(N)=O` [Off2.8] (H-RFLKHLHTYYERAWHVIGHL-NH2), the results for the EC50 in data set [1], in data set [2] and in data set [3] were above 100 µM, above 100 µM and 2 ± 2 µM, respectively. Further, in data set [4], the “Eryhtr. HC50 /µM” value is given as above 200 µM.

`CC[C@H](C)[C@H](NC(=O)[C@H](CC(C)C)NC(=O)[C@@H](N)Cc1c[nH]cn1)C(=O)N[C@@H](Cc1c[nH]cn1)C(=O)N[C@@H](CCCNC(=N)N)C(=O)N[C@@H](CC(C)C)C(=O)N[C@@H](Cc1c[nH]cn1)C(=O)N[C@H](C(=O)N[C@@H](Cc1ccc(O)cc1)C(=O)N[C@@H](Cc1c[nH]c2ccccc12)C(=O)N[C@@H](Cc1c[nH]cn1)C(=O)N[C@@H](CCCCN)C(=O)N1CCC[C@H]1C(=O)N[C@@H](Cc1c[nH]c2ccccc12)C(=O)N[C@@H](Cc1c[nH]cn1)C(=O)N[C@@H](Cc1ccc(O)cc1)C(=O)N[C@@H](CC(C)C)C(=O)NCC(=O)N[C@@H](CCCCN)C(=O)N[C@@H](CC(C)C)C(N)=O)[C@@H](C)O` [Off2.9] (H-HLIHRLHTYWHKPWHYLGKL-NH2): the EC50 in data set [1] was above 100 µM; in data set [2], above 100 µM; in data set [3] it was 135 ± 2 µM. Besides, the “Eryhtr. HC50 /µM” value in data set [4] is listed as above 200 µM.

Take `CC[C@H](C)[C@H](NC(=O)[C@H](CCCCN)NC(=O)[C@@H]1CCCN1C(=O)[C@H](Cc1c[nH]c2ccccc12)NC(=O)[C@@H](NC(=O)[C@H](Cc1c[nH]cn1)NC(=O)[C@H](Cc1c[nH]c2ccccc12)NC(=O)[C@H](C)NC(=O)[C@H](CCCCN)NC(=O)[C@H](CCCCN)NC(=O)[C@@H](NC(=O)[C@H](Cc1c[nH]c2ccccc12)NC(=O)[C@@H](NC(=O)[C@H](Cc1c[nH]cn1)NC(=O)[C@H](CC(C)C)NC(=O)[C@H](CCC(N)=O)NC(=O)[C@H](CCCNC(=N)N)NC(=O)[C@@H](NC(=O)[C@H](CCCNC(=N)N)NC(=O)[C@@H](N)CCC(N)=O)[C@@H](C)CC)[C@@H](C)O)[C@@H](C)CC)[C@@H](C)CC)C(N)=O` [Off2.10] (H-QRIRQLHTWIKKAWHIWPKI-NH2): the EC50 was found to be 40 ± 2 µM in data set [1], 28.6 ± 0.1 µM in data set [2] and 39.7 ± 0.3 µM in data set [3]. Further, the “Eryhtr. HC50 /µM” value in data set [4] was above 200 µM.

In the case of `CC[C@H](C)[C@H](NC(=O)[C@H](CCCCN)NC(=O)CNC(=O)[C@@H](NC(=O)[C@H](Cc1ccc(O)cc1)NC(=O)[C@H](Cc1c[nH]cn1)NC(=O)[C@H](Cc1c[nH]c2ccccc12)NC(=O)[C@@H](NC(=O)[C@H](CCCCN)NC(=O)[C@H](CCCCN)NC(=O)[C@H](CC(C)C)NC(=O)[C@@H](NC(=O)[C@H](Cc1c[nH]cn1)NC(=O)[C@H](CCCNC(=N)N)NC(=O)[C@H](Cc1ccccc1)NC(=O)[C@H](CCCCN)NC(=O)[C@H](CCCCN)NC(=O)[C@H](Cc1ccc(O)cc1)NC(=O)[C@H](CC(C)C)NC(=O)[C@@H](N)CCCCN)[C@@H](C)CC)C(C)C)C(C)C)C(N)=O` [Off3] (H-KLYKKFRHILKKVWHYVGKI-NH2), the results for the EC50 in data set [1], in data set [2] and in data set [3] were 14 ± 3 µM, 10 ± 1 µM and 10 ± 3 µM, respectively. Besides, in data set [4], the “Eryhtr. HC50 /µM” value is listed as 29 ± 3 µM.

Turning to `CC[C@H](C)[C@H](NC(=O)[C@H](CC(C)C)NC(=O)[C@H](CCCCN)NC(=O)[C@H](Cc1ccccc1)NC(=O)[C@@H](NC(=O)[C@H](CCCCN)NC(=O)[C@H](CCCCN)NC(=O)[C@H](Cc1ccccc1)NC(=O)[C@H](Cc1c[nH]c2ccccc12)NC(=O)[C@@H](NC(=O)[C@H](CCCCN)NC(=O)[C@H](CC(C)C)NC(=O)[C@H](Cc1c[nH]cn1)NC(=O)[C@H](CCCNC(=N)N)NC(=O)[C@@H](NC(=O)[C@H](Cc1ccc(O)cc1)NC(=O)[C@@H](N)CCCCN)[C@@H](C)CC)[C@@H](C)O)C(C)C)C(=O)NCC(=O)N[C@@H](CCC(=O)O)C(=O)N[C@H](C(N)=O)C(C)C` [Off4] (H-KYIRHLKTWFKKVFKLIGEV-NH2), the EC50 in data set [1] was 15 ± 0.1 µM; in data set [2], 11 ± 2 µM; in data set [3], 7.1 ± 0.1 µM. Moreover, the “Eryhtr. HC50 /µM” value in data set [4] is 20 ± 3 µM.

With `CC[C@H](C)[C@H](NC(=O)[C@H](CCCCN)NC(=O)[C@H](CCCCN)NC(=O)[C@H](CC(C)C)NC(=O)[C@H](Cc1ccccc1)NC(=O)[C@H](CC(=O)O)NC(=O)[C@H](CCCCN)NC(=O)[C@H](Cc1ccccc1)NC(=O)[C@H](CCCCN)NC(=O)[C@H](CCCCN)NC(=O)[C@H](Cc1ccccc1)NC(=O)[C@@H](NC(=O)[C@@H](N)CCCCN)[C@@H](C)CC)C(=O)N[C@@H](Cc1ccccc1)C(=O)N[C@@H](CCC(N)=O)C(=O)N[C@@H](Cc1ccc(O)cc1)C(=O)N[C@@H](CC(C)C)C(=O)NCC(=O)N[C@@H](CCCCN)C(=O)N[C@H](C(N)=O)C(C)C` [Off5] (H-KIFKKFKDFLKKIFQYLGKV-NH2), the EC50 in data set [1] worked out at 17.4 ± 0.1 µM; in data set [2], 12.4 ± 0.4 µM; in data set [3] it was 10.1 ± 0.2 µM. Besides, the “Eryhtr. HC50 /µM” value in data set [4] is 15 ± 2 µM.

In the case of `CC[C@H](C)[C@H](NC(=O)[C@H](CCCNC(=N)N)NC(=O)[C@H](Cc1ccccc1)NC(=O)[C@H](CC(C)C)NC(=O)[C@H](CCCCN)NC(=O)[C@H](CCCCN)NC(=O)[C@H](Cc1c[nH]c2ccccc12)NC(=O)[C@H](Cc1ccc(O)cc1)NC(=O)[C@@H](NC(=O)[C@H](CCCCN)NC(=O)[C@@H](NC(=O)[C@H](CCCCN)NC(=O)[C@H](CCCCN)NC(=O)[C@H](Cc1ccccc1)NC(=O)[C@@H](NC(=O)[C@@H](N)Cc1c[nH]cn1)[C@@H](C)CC)C(C)C)[C@@H](C)O)C(=O)N[C@@H](CC(C)C)C(=O)NCC(=O)N[C@@H](CCCNC(=N)N)C(=O)N[C@@H](Cc1ccccc1)C(N)=O` [Off6] (H-HIFKKVKTYWKKLFRILGRF-NH2), the EC50 in data set [1] amounted to 18 ± 2 µM; in data set [2], 12 ± 3 µM; in data set [3], 5 ± 0.7 µM. Besides, the “Eryhtr. HC50 /µM” value in data set [4] was determined as 16 ± 2 µM.

The values above are taken from PMC6677754, “In silico design and optimization of selective membranolytic anticancer peptides” (Scientific Reports, 2019).
